How the values were obtained:
PDE5 = test system: PDE5; design: method as in PMID 29656464; details: Figure 1; cited from earlier work
HCT-116 = experiment: MTT cell proliferation assay, HCT-116; details: for % Inhibition at 10 µM: 72 h MTT, means ± SD
PDE5A = molecular target: T1, PDE5A (Homo sapiens, UniProt O76074); experiment: Phosphodiesterase 5 HTRF cGMP assay; format: biochemical
T1 construct: purchased BPS Bioscience, San Diego, CA, USA
Procedure: All the synthesized acridine derivatives were tested for their in vitro ability to inhibit PDE5A at a screening dose of 10 µM.
The enzyme activities of phosphodiesterase 5 (PDE5) were measured using an HTRF cGMP assay kit (Cisbio, Codolet, France). […] Afterward, the HTRF reagent (cGMP-d2 and anti-cGMP-cryptate) was added for 1 h at 25 °C, and PDE activity was assayed on an HTRF reader (Tecan Infinite F200 Pro).

CCD-966SK = experiment: MTT cell proliferation assay, CCD-966SK; details: CCD966SK skin fibroblast; 10 µM; 72 h MTT
Procedure: In the MTT assay, 96-well culture plates were used. A total of 7 × 10^4 cells per well were seeded, and test materials were added to the cells at various concentrations [47, 48]. Human cancer and non-cancer cell lines were purchased commercially from the American Type Culture Collection (ATCC). After 72 h, the cytotoxicity of the compounds and paclitaxel (as a positive control group) was detected using the MTT method (thiazolyl blue tetrazolium bromide, Sigma-M2128). Absorbance values at 570 and 620 nm (OD = OD570–OD620) were measured using an ELISA reader (Anthos Labtec Instruments, Salzburg, Austria).

SMILES | IC50 (PDE5) | % Inhibition at 10 µM (HCT-116) | IC50 (PDE5A; means ± S.D. (n = 4), read-out: PDE5 IC50) | inhibition at 10 µM (PDE5A; read-out: PDE5 % Inhibition at 10 μM) | % Inhibition at 10 µM (CCD-966SK) | melting point | IC50 (HCT-116; read-out: IC50 μM, 72 h MTT, means ± SD, three experiments)
c1ccc(CNc2ncnc3sc4c(c23)CCCCC4)cc1 [B] | 190 nM |  |  |  |  |  | 
c1ccc(CNc2ncnc3sc4c(c23)CCC4)cc1 [C] | 420 nM |  |  |  |  |  | 
c1csc(CNc2c3ccccc3nc3ccccc23)c1 [Compound 15, Acridin-9-yl-thiophen-2-ylmethyl-amine] |  | 39.65 ± 4.72% | 6430 ± 1300 nM | 58.4 ± 1.47% | 11.54 ± 0.04% | 121 to 123 °C | 
N.N.[Cl][Pt][Cl] [cisplatin, reference compound] |  | 83.00 ± 0.38% |  |  | 38.73 ± 5.19% |  | 3.62 ± 0.19 µM
